For one series, the system named is plasmid DNA. Nature of the series: DNA condensation/complexation, EtBr displacement assay. It is filed as binding. The method, then: The ability of the cationic amphiphiles to condense DNA was assessed with an EtBr displacement assay. Briefly, in 96 well plates plasmid DNA (0.6 μg per well) was reacted with 0.002% EtBr in 20 mM HEPES—150 mM NaCl buffer, pH 7.4 and fluorescence intensity was measured at 530 nm (excitation) and 590 nm (emission). Intercalation of EtBr molecules between the base pairs of the DNA double helix results in increased fluorescence signal. Immediately thereafter, the cationic liposomes were added to form complexes at different +/−charge ratios and the quenching of fluorescence intensity of EtBr was monitored. Condensation of DNA upon complexation with liposomes results in the displacement of EtBr from DNA and in decreased fluorescence signal. Fluorescence was measured using FL 500 microplate fluorescence reader (Bio-Tek Instruments Inc., Winooski, Vt., USA).
The values are expressed as percentage of the maximum fluorescence signal when EtBr bound to DNA in the absence of an amphiphile. Each data point is from at least triplicate experiment ±S.D.

The subject of series [1] is CV-1P (African monkey green kidney fibroblasts cells). Nature of the series: In vitro transfection of plasmid DNA, β-galactosidase activity per well. To be noted: CVI-P. It is filed as cell-based. How it is done:
Transfer of plasmid DNA by various compounds was investigated by using CV-1P (African monkey green kidney fibroblasts cells) and D407 (human retinal pigment epithelial) cells.
The cells were cultured in Dulbecco's modified Eagle's medium (DMEM, Gibco), supplemented with 10% fetal bovine serum (FBS), penicillin/streptomycin (100 units/ml and 100 μg/ml respectively) and 2 mM L-glutamine for D 407 cell line. Cell cultures were maintained at 37° C. in a 7% CO2/air incubator. The cells were collected, counted and seeded in growth medium (100 μl) into 96-well culture plate, 20 000 cells per well. One day later the medium was replaced with fresh medium without serum (150 μl)
In the case of confluent CV1-P cells the medium (with of without serum) was changed on fourth day of cell growth before the transfection.
The complexes at different derivative/DNA charge ratios for transfection procedure were prepared just before use in 50 mM MES—50 mM HEPES—75 mM NaCl buffer, pH 7.2 in separate 96 well plates. One hour after changing the serum-free medium with 10% serum the complexes were added to the cells at […]. Dose of DNA per well was 0.6 μg. After 5 h the complexes were removed, the cells were washed with PBS, and the normal growth medium was added. After 45 h of incubation at 37° C. the cells were lysed with 2% Triton X 100, twice deep frozen and the β-galactosidase activity in each well was determined spectrofotometrically with ELx800 automated microplate reader (Bio-Tex Instruments Inc., Winooski, Vt. USA) by monitoring the hydrolysis of o-nitrophenylgalactopyranoside (oNPG) at 405 nm. Purified β-galactosidase from E.coli was used to construct a standard curve and to calculate […] activity in the transfected cells. […] Transfection efficiencies are given as percentage in comparison to transfection efficiency of Lipofectin^R.

In another series the test system is D 407 cells. Put plainly: Cytotoxicity of amphiphile/DNA complexes, percentage of survived cells. It is filed as cell-based, human. More on the design: concentration or dose not given beside the values.
The subject of series [2] is D407 (human retinal pigment epithelial) cells. Nature of the series: In vitro transfection of plasmid DNA, β-galactosidase activity per well. It is filed as cell-based. Conditions: D 407.
For another series, the system named is CVI-P cells. Nature of the series: Cytotoxicity of amphiphile/DNA complexes, percentage of survived cells.
The mark [3] stands for this setting: amphiphile/DNA +/− charge ratio 0.5.
[4] abbreviates: amphiphile/DNA +/− charge ratio 1.
Where [5] appears, read: amphiphile/DNA +/− charge ratio 2.
Setting [6] is: amphiphile/DNA +/− charge ratio 4.
The mark [7] stands for this setting: amphiphile/DNA +/− charge ratio 8.

A word on the melting point: it is the temperature of the solid-liquid transition. In turn, `Br.CCCOCCOC(=O)C1=C(C)NC(C)=C(C(=O)OCCOCCC)C1c1ccc[n+](CC(=O)c2ccccc2)c1.[Br-]` registered a melting point of 135 to 138 °C.
The same measure, in the same setting: under `Br.CCCCCCCCCCCCCCCCOC(=O)C1=C(C)NC(C)=C(C(=O)OCCCCCCCCCCCCCCCC)C1c1ccc[n+](CC(=O)c2ccccc2)c1.[Br-]` stands 148 to 150 °C.
For `Br.CCOC(=O)C1=C(C)NC(C)=C(C(=O)OCC)C1c1cc[n+](CC(=O)c2ccccc2)cc1.[Br-]`, the melting point is 224 to 227 °C.
Still for that read-out and setting: under `Br.CCOC(=O)C1=C(C)NC(C)=C(C(=O)OCC)C1c1cc[n+](CC(=O)c2ccc3ccccc3c2)cc1.[Br-]` stands 211 to 216 °C.
In turn, `Br.CCOC(=O)C1=C(C)NC(C)=C(C(=O)OCC)C1c1ccc[n+](CCCCCCCCCCC(=O)O)c1.[Br-]` returned a melting point of 134 to 136 °C.
On the same count and under the same terms, under `Br.CCOC(=O)C1=C(C)NC(C)=C(C(=O)OCC)C1c1ccc[n+](CCCCCCCCCCCC(=O)O)c1.[Br-]` stands 152 to 156 °C; under `Br.CCOC(=O)C1=C(C)NC(C)=C(C(=O)OCC)C1c1ccc[n+](Cc2ccc([N+](=O)[O-])cc2)c1.[Br-]`, 212 to 213 °C (dec.); under `CCOC(=O)C1=C(C)NC(C)=C(C(=O)OCC)C1c1ccc[n+](-c2ccc([N+](=O)[O-])cc2[N+](=O)[O-])c1.Cl.[Cl-]`, 178 to 180 °C.
The same measure, in the same setting: under `CC1=C(C(=O)OCc2ccc([N+](=O)[O-])cc2)C(c2ccc[n+](C)c2)C(C(=O)OCc2ccc([N+](=O)[O-])cc2)=C(C)N1.I.[I-]` stands 202 to 203 °C; under `Br.CCCCCCCCCCCCCCCC[n+]1cccc(C2C(C(=O)OCc3ccc([N+](=O)[O-])cc3)=C(C)NC(C)=C2C(=O)OCc2ccc([N+](=O)[O-])cc2)c1.[Br-]`, 89 to 93 °C; under `Br.CCCCCCCCCCCCCCCC[n+]1ccc(C2C(C(=O)OCC)=C(C)NC(C)=C2C(=O)OCC)cc1.[Br-]`, 95 to 98 °C.
Same read-out and setting: next, `Br.CCCCCCCCCCCCCCCC[n+]1ccccc1C1C(C(=O)OCC)=C(C)NC(C)=C1C(=O)OCC.[Br-]`: 117 to 121 °C; `Br.CCOC(=O)C[n+]1cccc(C2C(C(=O)OC)=C(C)NC(C)=C2C(=O)OC)c1.[Br-]`: 180 °C (dec.); `Br.CCOCCOC(=O)C1=C(C)NC(C)=C(C(=O)OCCOCC)C1c1ccc[n+](CC(=O)OCC)c1.[Br-]`: 163 to 165 °C.
As to `Br.CCCOCCOC(=O)C1=C(C)NC(C)=C(C(=O)OCCOCCC)C1c1ccc[n+](CC(=O)OCC)c1.[Br-]`, the melting point fell in the range of 144 to 146 °C.
Same read-out and setting: next, `Br.CCCCCCCCCCCCCCCCOC(=O)C1=C(C)NC(C)=C(C(=O)OCCCCCCCCCCCCCCCC)C1c1ccc[n+](CC(=O)OCC)c1.[Br-]`: 99 to 102 °C; `Br.CCOC(=O)C[n+]1cccc(C2C(C(=O)OC3CC(C)CCC3C(C)C)=C(C)NC(C)=C2C(=O)OC2CC(C)CCC2C(C)C)c1.[Br-]` (stereo not drawn): 180 °C (dec.); `Br.CCOC(=O)C[n+]1ccc(C2C(C(=O)OCC)=C(C)NC(C)=C2C(=O)OCC)cc1.[Br-]`: 140 to 143 °C.
On the same count and under the same terms, next, `Br.CCOC(=O)C[n+]1ccccc1C1C(C(=O)OCC)=C(C)NC(C)=C1C(=O)OCC.[Br-]`: 197 to 199 °C.
Turning to `CCCCCCCCCCCCCCOC(=O)C1=C(C[n+]2ccccc2)NC(C[n+]2ccccc2)=C(C(=O)OCCCCCCCCCCCCCC)C1c1ccccc1.[Br-].[Br-]` [XXIV, 1,1′-{[1,4-Dihydro-4-phenyl-3,5-bis(tetradecyloxycarbonyl)-pyridine-2,6-diyl]dimethylene}bispyridinium dibromide], the “complexation, percentage of the maximum fluorescence signal when EtBr bound to DNA in the absence of an amphiphile” value is reported as 78,91% in the series on plasmid DNA (setting [3]); 63,92% with plasmid DNA (setting [4]); 54,5% with plasmid DNA (setting [5]); 50,0% with plasmid DNA (setting [6]); 49,62% with plasmid DNA (setting [7]). Further, the transfection efficiency in series [1] (setting [3]) is given as 0,63 β-galactosidase units per well; in series [1] (setting [4]), 2,48 β-galactosidase units per well; in series [1] (setting [5]), 15,46 β-galactosidase units per well; in series [1] (setting [6]) it was 47,78 β-galactosidase units per well; in series [1] (setting [7]), 9,48 β-galactosidase units per well; in series [2] (setting [3]), 0,20 β-galactosidase units per well. In addition, the transfection efficiency is given as 0,44 β-galactosidase units per well in series [2] (setting [4]), 0,53 β-galactosidase units per well in series [2] (setting [5]), 15,04 β-galactosidase units per well in series [2] (setting [6]) and 3,61 β-galactosidase units per well in series [2] (setting [7]). The “cytotoxicity as a percentage of survived cells” value (shortened to “cytotoxicity as a percentage”) in the series on D 407 cells (setting [3]) is reported as 97,59%; in the series with D 407 cells (setting [4]), 88,59%; in the series on D 407 cells (setting [5]) it was 98,83%; in the series on D 407 cells (setting [6]), 86,99%; in the series with D 407 cells (setting [7]), 51,24%; in the series with CVI-P cells (setting [3]), 96,17%. In addition, the “cytotoxicity as a percentage” value is 98,12% in the series on CVI-P cells (setting [4]), 86,72% with CVI-P cells (setting [5]), 88,19% in the series on CVI-P cells (setting [6]) and 48,08% in the series with CVI-P cells (setting [7]).
For the molecule `CCCCCCCCCCCCCCCCOC(=O)C1=C(C[n+]2ccccc2)NC(C[n+]2ccccc2)=C(C(=O)OCCCCCCCCCCCCCCCC)C1c1ccccc1.[Br-].[Br-]` [XXV, 1,1′-[(3,5-Dihexadecyloxycarbonyl-4-phenyl-1,4-dihydropyridine-2,6-diyl)dimethylene]bispyridinium dibromide], the “complexation, percentage of the maximum fluorescence signal when EtBr bound to DNA in the absence of an amphiphile” value in the series on plasmid DNA (setting [3]) is on record as 94,16%; in the series with plasmid DNA (setting [4]), 89,06%; with plasmid DNA (setting [5]) it was 83,1%; with plasmid DNA (setting [6]) it was 77,14%; in the series on plasmid DNA (setting [7]), 71,37%. Moreover, the transfection efficiency in series [1] (setting [3]) is 0,23 β-galactosidase units per well; in series [1] (setting [4]) it was 0,24 β-galactosidase units per well; in series [1] (setting [5]) it was 17,5 β-galactosidase units per well; in series [1] (setting [6]) it was 15,15 β-galactosidase units per well; in series [1] (setting [7]), 9,04 β-galactosidase units per well; in series [2] (setting [3]) it was 0,57 β-galactosidase units per well. Besides, the transfection efficiency in series [2] (setting [4]) is listed as 0,31 β-galactosidase units per well; in series [2] (setting [5]), 066 β-galactosidase units per well; in series [2] (setting [6]), 2,05 β-galactosidase units per well; in series [2] (setting [7]), 2,47 β-galactosidase units per well. For the same molecule, the “cytotoxicity as a percentage” value in the series on D 407 cells (setting [3]) is 97,52%; in the series with D 407 cells (setting [4]), 97,73%; in the series on D 407 cells (setting [5]), 101,48%; with D 407 cells (setting [6]), 89,12%; with D 407 cells (setting [7]) it was 62,05%; in the series on CVI-P cells (setting [3]), 92,82%. In addition, the “cytotoxicity as a percentage” value is 99,29% in the series with CVI-P cells (setting [4]), 101,03% in the series on CVI-P cells (setting [5]), 107,03% in the series on CVI-P cells (setting [6]) and 100,65% in the series with CVI-P cells (setting [7]).

These data come from patent US20030064954A1, “Cationic amphiphilic 1,4-dihydropyridine derivatives useful for delivery of nucleotide containing compounds” (priority 2000, published 2003).
